The values that follow come from patent US20070259857A1, “Amorphous form of Olanzapine” (priority 2003, published 2007).

A short description of the data set: Storage stability of ground amorphous olanzapine at room temperature, by XRPD analysis. The note with it: ground sample of Example One stored at room temperature for 13 weeks. In kind it is physicochemical. As for the experimental part: Figure Two is an XRPD spectrum of amorphous olanzapine. X-ray powder diffraction (XRPD) was performed on a Bruker D8 advance difractometer, at 25° C. between the angles of 4° and 50° 2 theta.
The sample of ground olanzapine was stored at room temperature for 13 weeks for stability testing using XRPD analysis.

On to `Cc1cc2c(s1)Nc1ccccc1N=C2N1CCN(C)CC1` [olanzapine, 2-methyl-4-(4-methyl-1-piperazinyl)-10H-thieno[2,3-b][1,5]benzodiazepine], for which the “Stability testing using XRPD analysis: difference in XRPD spectrum between the original and the stored sample” value was “No difference was observed”.
